Laboratory results reported in patent US8759363B2, “Quinazoline-based T cell proliferation inhibitors” (Yissum Research Development Company of the Hebrew …, priority 2010, dated 2014).
Where two headings read alike, the source gives them in different places.

Columns and labels:
[1] = system: NIH 3T3, A-431, MDA-MB-468, PANC-1, human keratinocytes; assay: Growth of non-hematopoietic cell lines; assay type: cell-based; conditions: at high concentrations at which Jurkat and PBMC growth was strongly inhibited
Description: The inhibitor-treated cultures and controls were fixed in glutaraldehyde, 0.05% final concentration, for 10 min at room temperature. After washing, the plates were stained with 0.1% methylene blue in 0.1 M borate buffer, for 60 min at room temperature. The plates were rigorously washed to remove excess dye and dried. The dye taken up by cells was eluted in 0.1N HCl for 60 min at 37° C., and the OD of the solution was read at 620 nm. In preliminary titration experiments, linear readings were obtained for 1×10^3 to 4×10^4 cells/well.
To characterize the mode of action of 2 (S101) in more detail, we first examined whether 2 inhibits non-hematopoietic cell lines. We studied the effect of 2 on the growth of four cell lines: NIH 3T3 (mouse embryonic fibroblasts), A-431 (human vulval carcinoma cells), MDA-MB-468 (human breast carcinoma cells), and PANC-1 (human pancreatic carcinoma cells) (FIGS. 1A-B). We also tested the inhibitors on human keratinocytes. […] We also examined the effect of 2 on BrdU uptake by stimulated and non-stimulated PC-3 (human prostate cancer), HEK293 (human embryonic kidney), NIH-3T3, A375 (human malignant melanoma), and MDA-MB-231 (human breast adenocarcinoma).

A375 = A375 proliferation, BrdU uptake; assay type: cell-based; conditions: Homo sapiens, A-375
Description: (§1) Cells were depleted of fetal calf serum (FCS) for 12 hours. They were then stimulated to proliferate by addition of ConA (10 μg/ml) for PBMC from healthy individuals and for Jurkat cells, FCS (10%) for HEK293 and A375 cells, PDGF (30 ng/ml) for NIH 3T3 cells, and EGF (30 ng/ml) for MDA-MB-231, Cells (1×10^5) were cultured in 96-well plates for 3 days in the presence or absence of inhibitors at the concentrations specified in the text. Each condition was tested in duplicate wells.
(§2) Proliferation was assessed by BrdU incorporation using a colorimetric ELISA kit (Roche, Germany). Subsequent to labeling with 10 μM BrdU, DNA was denatured and the cells were incubated with anti-BrdU-POD, prior to the addition of colorimetric substrate (TMB). The reaction product was quantified by measuring absorbance at 450 nm in an ELISA plate reader (ELx800 BIO-TEK Instruments Inc.).
(§3) To characterize the mode of action of 2 (S101) in more detail, we first examined whether 2 inhibits non-hematopoietic cell lines. We studied the effect of 2 on the growth of four cell lines: NIH 3T3 (mouse embryonic fibroblasts), A-431 (human vulval carcinoma cells), MDA-MB-468 (human breast carcinoma cells), and PANC-1 (human pancreatic carcinoma cells) (FIGS. 1A-B). We also tested the inhibitors on human keratinocytes. […]

MDA-MB-231 = MDA-MB-231 proliferation, BrdU uptake; assay type: cell-based; conditions: Homo sapiens
Description: as §1, §2, §3

HEK293 = HEK293 proliferation, BrdU uptake; assay type: cell-based; conditions: Homo sapiens
Description: as §1, §2, §3

[2] = system: IL-2 secretion by 2C splenocytes stimulated by irradiated BALB/c splenocytes; assay: IL-2 levels in MLR supernatants; assay type: cell-based, mouse; conditions: 24, 48 and 72 h MLR; compound 2 up to 1 μM
Description: In the mixed lymphocyte reaction, stimulator cells cause responder cells to proliferate, owing to alloreactivity [Reich-Zeliger et al., 2004]. Splenocytes from 2c mice were stimulated by irradiated splenocytes from BALB/c mice in the presence of the evaluated compound at the concentrations specified. Cultures were incubated for 72 hours in 96-well plates.
Jurkat or PBMC cells were treated for 12 h with 1 μM, 0.5 μM or no inhibitor. Cells (1×10^6) were plated in 24-well plates (Nunc) and stimulated by C305 (dilution 1:500), anti-CD28 (1:100), PMA (50 ng/ml) or ionomycin (1 μM) for 12 h. Alternately, cells were stimulated for 24, 48 and 72 h in MLR. After stimulation cells were centrifuged at 130×g for 5 minutes at room temperature.
Supernatants were collected and IL-2 was assayed using the IL-2 ELISA kit (BioSource International USA, KH0022) according to the manufacturer's instructions. Absorbance was read at 450 nm in an ELISA plate reader (ELx800 BIO-TEK Instruments Inc.).
In vivo, T cells are stimulated by neighboring cells. In order to test the effect of 2 on cell-stimulated IL-2 secretion, the supernatants of splenocytes after 24, 48 and 72 h MLR were collected and analyzed for their IL-2 levels (FIG. 5C). […] At higher concentrations, no viable cells remained.

TEA (stimulated) cells = assay: MLR with resting control cells, stimulated TEA cells; assay type: cell-based, mouse; conditions: 0.5 μM, 72 h MLR with IL-7; no inhibitor 3850
Source text: The aim of this test was to determine whether 2 affects only the proliferating cells or there is a general mechanism affecting all cell numbers. For this purpose we mixed 3 cell types: […]: BALB/c, 2C and OT1; […]: CB6F1, TEA and OT2. The OT1 and OT2 are splenocytes that were isolated from OT1 and OT2 mice (Jackson Laboratories, Bar Harbor, Me.),
Thus, the ability to monitor the fate of proliferation and resting cells by FACS was enabled due to the use of the MLR described above for CD4+ and CD8+ and the addition of OT2 and OT1 splenocytes, respectively.
Proliferating cells often secrete cytokines that induce survival of neighbouring cells; since the proliferation was expected to be inhibited we added 50 ng/ml of IL-7. This concentration is sufficient to keep the cells alive, but not to induce proliferation.
The number of TEA and OT2 cells that were treated with 0.5 μM 2 was 1452 and 826, respectively, while the number of 2C and OT1 cells that were treated with 0.5 μM 21 was 3003 and 903, respectively. This is depicted as a bar-graph in FIG. 9C.

COc1cc(-c2nc(Nc3ccc(C)cc3)c3ccccc3n2)cc(OC)c1OC [Compound 2, N-p-tolyl-2-(3,4,5-trimethoxyphenyl)quinazolin-4-amine]
effect on growth of non-hematopoietic cell types [1]: slightly affected
IC50 (A375; A375, non-stimulated, read-out: IC50 of non-stimulated cells): ~0.8 µM
IC50 (A375; A375, serum (FCS 10%) activated, read-out: IC50 of stimulated cells): > 10 µM
IC50 (MDA-MB-231; MDA-MB-231, EGF (30 ng/ml) activated, read-out: IC50 of stimulated cells): > 10 µM
IC50 (MDA-MB-231; MDA-MB-231, non-stimulated, read-out: IC50 of non-stimulated cells): > 10 µM
IC50 (HEK293; HEK293, non-stimulated, read-out: IC50 of non-stimulated cells): ~10 µM
IC50 (HEK293; HEK293, serum (FCS 10%) activated, read-out: IC50 of stimulated cells): ~10 µM
IL-2 levels in MLR supernatants [2]: no visible decrease
number of TEA (stimulated) cells (TEA (stimulated) cells): 1452
